We go through eight compounds from patent publication US20090304661A1, “Method And Composition For Proctecting Neuronal Tissue From Damage Induced By Elevated Glutamate Levels” (Yeda Research And Development Co. Ltd. at the Weizmann …, priority 2006, published 2009).

Series [1] deals with blood Glu levels. In words: Blood Glu levels in rats after stress hormones, agonists and antagonists. The conditions noted are these: for effect on blood Glu levels: cortisol 25 mg/kg intraperitoneally, noradrenaline intravenously 30 min at 2 μg/100 g/min. In kind it is in vivo, rat. Here is the method:
FIGS. 2A-B are line graphs showing the effects of stress hormones and stress on blood glutamate and glucose levels. A: Cortisol (25 mg/kg) was injected intraperitoneally (triangles). Noradrenaline was infused intravenously for 30 min at 2 μg/100 g/min and 1 ml/100 g (rectangles). Adrenaline was infused intravenously for 30 min at […] and 1 ml/100 g (diamonds). The data presented are normalized to the respective basal blood values and shown as mean±standard deviation (n=3). B: Effects of an intracranial insertion of a microdialysis probe (without any fluid perfusion) on blood Glu (diamonds) and glucose (rectangles) levels. The data presented are normalized to the respective basal blood values and shown as mean±standard deviation (n=4);
The rats NSS were measured after 24 and 48 h The results are presented as mean±standard deviation; and
FIG. 8 is a graph showing the effect of an alpha 1 agonist, phenylephrine on blood Glu levels. Phenylephrine was infused intravenously for 30 min into rats (n=4) at a rate 0.25 mg/0.5 ml/100 g/30 min and the levels of blood Glu were determined at time=0 and every subsequent 30 min until 120 min. The results are presented as mean±standard deviation.
Glu spectrofluorometric assay—Glu concentration was measured using the fluorometric method of Graham and Aprison. A 20 μl aliquot from microdialysate was added to 480 μl HG buffer containing 15 U of Glu dehydrogenase in 0.2 mM NAD, 0.3M glycine, 0.25 M hydrazine hydrate adjusted to pH 8.6 with 1N H2SO4. After incubation for 30-45 min at room temperature, the fluorescence was measured at 460 nm with excitation at 350 nm. A Glu standard curve was established with concentrations ranging from 0-6 μM. All determinations were done at least in duplicates. The results are expressed as mean.+−SD.
Determination of Blood/plasma Glu—Whole blood (200 μl aliquot) were deproteinized by adding an equal volume of ice-cold 1 M perchloric acid (PCA) and then centrifuging at 10000×g for 10 min at 4° C. The pellet was discarded and supernatant collected, adjusted to pH 7.2 with 2M K2CO3 and, if needed, stored at −80° C. for later analysis using the above-described assay.
The rats NSS were measured after 24 and 48 h.
Phenylephrine was infused intravenously for 30 min into rats (n=4) at a rate 0.25 mg/0.5 ml/100 g/30 min and the levels of blood Glu were determined at time=0 and every subsequent 30 min until 120 min.

The subject of series [2] is Glu in rat brain striatum. Put plainly: Dual-probe microdialysis of Glu in rat brain striatum. In kind it is in vivo.
Protocol: Glu (1M) was continuously perfused at a rate of 2 μl/min from the delivery probe while perfusing artificial CSF at the same rate of 2 μl/min through the recovery probe for the entire duration of the experiments. […] Microdialysis of 1M Glu along with an intravenous Glu injection performed at t=100 min for 30 min (30 μmoles/min/100 g).
Artificial CSF was perfused at a rate of 2 μl/min through the two probes for a duration of 60 min. A 1 M solution of glutamate was then perfused through the delivery probe, at a rate of 2 μl/min for the entire duration of the experiment while perfusing artificial CSF at the same rate of 2 μl/min through a recovery probe, located at 1 mm from the delivery probe. Aliqouots of 40 μl were collected from the recovery probe every 20 min. The recovered Glu was measured using a spectrofluorometric assay (see below).
A 20 μl aliquot from microdialysate was added to 480 μl HG buffer containing 15 U of Glu dehydrogenase in 0.2 mM NAD, 0.3M glycine, 0.25 M hydrazine hydrate adjusted to pH 8.6 with 1N H2SO4. […] A Glu standard curve was established with concentrations ranging from 0-6 μM. All determinations were done at least in duplicates. The results are expressed as mean.+−SD.
The dual-probe brain microdialysis was used and perfused through the delivery probe inserted in the striatum of anesthetized rats a Glu solution while simultaneously perfusing artificial CSF through a recovery probe, located at 1 mm distance.
Series [3] relates to blood Glu levels. Put plainly: Blood Glu levels following traumatic brain injury. In kind it is in vivo, rat. Here is the method:
FIGS. 3A-C are graphs showing the effects of stress on the spontaneous recovery from traumatic brain injury. FIG. 3A illustrates TBI protocol and times of neurological severity score (NSS) assessment and removal of blood samples (asterisks) […] is a histogram showing the effects of propranolol (10 mg/kg i.p) on the spontaneous recovery of rats submitted to TBI. Propranolol was injected 60 min before the infliction of TBI. The neurological severity scores were measured at 1 and 24 hours following TBI. The scores shown on the ordinate correspond to NSS averages+/−standard error of the mean. Control (n=33); propranolol (n=8). Bonferroni's multiple comparison tests: saline 1 h vs saline 24 h p<0.001; saline 1 h vs propranolol pretreatment p>0.05; saline 1 h vs propranolol post-TBI p<0.001. FIG. 3C is a graph showing the effects of propranolol on the blood Glu (rectangles) and glucose (triangles) levels of rats submitted to TBI (n=8). Propranolol was injected at a dose of 10 mg/kg i.p. 60 min before the infliction of TBI. Glu and glucose levels were measured at 1, 60, 120 and 150 min following TBI. Glu levels were normalized to the value at t=1 min.;
FIGS. 4A-C are graphs depicting the effects of a blood Glu scavenger and of Glu on the recovery from TBI. Rats were injected intravenously for a total duration of 30 min (as in FIG. 3A) either with saline (30 μl/min/100 g), OxAc (30 μmoles/min/100 g) or OxAc+Glu (30 μmoles/min/100 g each). Twenty four and forty eight hours later, rats were submitted to various tests to establish the NSS. The scores shown above each column correspond to NSS averages with bars indicating the standard error of the mean. FIG. 4A—The groups from left to right are as follows: control saline (n=33) at 1 hour and 24 h; OxAc (n=32); Glu (n=32); OxAc+Glu (n=17) at 24 h and 48 h; One way ANOVA and Bonferroni multiple comparison tests: At 24 h: saline versus OxAc: p<0.05; saline versus Glu: p<0.01; Glu versus OxAc: p<0.001; saline versus OxAc+Glu: p>0.05. […] Glu levels are expressed as the percent of the basal Glu levels measured before TBI. […] Paired t test: 0 versus 60 min saline p=5.10^−4; 0 versus 60 min OxAc p=0.10^−4; 60 min versus 75 min saline: p=0.59; 60 min versus 75 min OxAc: p=3.10^−3; 75 min versus 90 min saline: p=0.89; 75 min versus 90 min OxAc: p=2.10^−4; C: Time course of the recovery from TBI in saline (n=7) and OxAc-treated (n=7) rats as monitored by NSS values presented here as mean±standard deviation. […]
Glu spectrofluorometric assay—Glu concentration was measured using the fluorometric method of Graham and Aprison. […] After incubation for 30-45 min at room temperature, the fluorescence was measured at 460 nm with excitation at 350 nm. […] The results are expressed as mean.+−SD. […]

Series [4] is described as follows: Blood osmolality and Na content before and after treatment. In kind it is in vivo, rat. The conditions noted are these: OxAc group. Here is the method: This beneficial effect was not observed in the other groups for which the treatment includes the intravenous administration of Glu (data not shown). Since OxAc could act on brain edema as an osmotic agent, both the blood osmolality and Na content were measured before and after the 30 min-long treatments with OxAc or saline. There was no change in the saline group (303±3.5 mOsm (pre-treatment) vs 299±3 mOsm (post-treatment); Na: 140±1 meq/l vs 141±0.8 meq/l) but a very significant increase in the OxAc-group: (301±5 mOsm vs 338±8 mOsm; Na: 139±1 meq/l vs 164±3.4 meq/l). The hypernatriema and hyperosmolarity in the OxAc-treated rats can be accounted by the fact that OxAc is administered together with 2 Na equivalents. To determine that the NSS improvement and edema reduction in the OxAc-treated rats were not due to an osmotic “therapy”, rats were submitted after TBI to a hypertonic (3% NaCl) saline treatment. As the respective NSS values obtained at 60 min and 24 h post TBI were 15.6±3.6 and 12.4±5.3 (n=7; p=0.16), it was concluded that the beneficial effects of OxAc are not the result of an osmotic therapy.

The target of series [5] is E. coli GOT (GenBank Accession No. D90731.1) (Escherichia coli, UniProt P00509). The conditions noted are these: cited from earlier work.
The subject of series [6] is traumatic brain injury (TBI). In words: Neurological severity score (NSS) after traumatic brain injury. The conditions noted are these: for spontaneous partial recovery of rats submitted to TBI: summary statement. In kind it is in vivo, rat.
Protocol: FIGS. 3A-C are graphs showing the effects of stress on the spontaneous recovery from traumatic brain injury. FIG. 3A illustrates TBI protocol and times of neurological severity score (NSS) assessment and removal of blood samples (asterisks) FIG. 4B is a histogram showing the effects of propranolol (10 mg/kg i.p) on the spontaneous recovery of rats submitted to TBI. Propranolol was injected 60 min before the infliction of TBI. The neurological severity scores were measured at 1 and 24 hours following TBI. The scores shown on the ordinate correspond to NSS averages+/−standard error of the mean. Control (n=33); propranolol (n=8). […] Propranolol was injected at a dose of 10 mg/kg i.p. 60 min before the infliction of TBI.
Animal anesthesia and well being—Experiments were conducted according to the recommendations of the Declarations of Helsinki and Tokyo and to the Guidelines for the Use of Experimental Animals of the European Community. The experiments were approved by the Animal Care Committees of Ben-Gurion University of the Negev and of the Weizmann Institute. Spontaneously breathing male Sprague Dawley rats weighing 200-300 g were anesthetized with a mixture of isoflurane (initial inspired concentration 2%) in 100% oxygen (1l/min). The rectal temperature was maintained at 37° C. using a heating pad and anesthesia was considered as sufficient for surgery when tail reflex was abolished. Catherization of the tail vein was carried out with a BD Neoflon 24 g catheter for allowing fluid infusion. Catherization of the tail artery was performed to allow blood sampling and determination of blood pressure and heart rate.
In series [7] the test system is blood glucose levels. In words: Blood glucose levels following traumatic brain injury. In kind it is in vivo, rat. The conditions noted are these: propranolol 10 mg/kg i.p. 60 min before TBI. Here is the method: FIGS. 3A-C are graphs showing the effects of stress on the spontaneous recovery from traumatic brain injury. FIG. 3A illustrates TBI protocol and times of neurological severity score (NSS) assessment and removal of blood samples (asterisks) […] is a histogram showing the effects of propranolol (10 mg/kg i.p) on the spontaneous recovery of rats submitted to TBI. Propranolol was injected 60 min before the infliction of TBI. The neurological severity scores were measured at 1 and 24 hours following TBI. The scores shown on the ordinate correspond to NSS averages+/−standard error of the mean. Control (n=33); propranolol (n=8). […] Glu and glucose levels were measured at 1, 60, 120 and 150 min following TBI. […]
Animal anesthesia and well being—Experiments were conducted according to the recommendations of the Declarations of Helsinki and Tokyo and to the Guidelines for the Use of Experimental Animals of the European Community. […] Blood samples were analyzed for pH, pO2, pCO2, HCO3^−3. Glucose levels were measured with Accu-Chek sensor comfort. […] Following TBI, all rats were laid on their left side in order to recover from anesthesia and to check righting reflex and recovery time as part of the assessment of NSS which was evaluated 1 h after TBI (see below).

Where [8] appears, read: baseline before 30 min-long treatment.

The structures appear in SMILES notation.

Chain of E. coli GOT (GenBank Accession No. D90731.1) (P00509 whole entry): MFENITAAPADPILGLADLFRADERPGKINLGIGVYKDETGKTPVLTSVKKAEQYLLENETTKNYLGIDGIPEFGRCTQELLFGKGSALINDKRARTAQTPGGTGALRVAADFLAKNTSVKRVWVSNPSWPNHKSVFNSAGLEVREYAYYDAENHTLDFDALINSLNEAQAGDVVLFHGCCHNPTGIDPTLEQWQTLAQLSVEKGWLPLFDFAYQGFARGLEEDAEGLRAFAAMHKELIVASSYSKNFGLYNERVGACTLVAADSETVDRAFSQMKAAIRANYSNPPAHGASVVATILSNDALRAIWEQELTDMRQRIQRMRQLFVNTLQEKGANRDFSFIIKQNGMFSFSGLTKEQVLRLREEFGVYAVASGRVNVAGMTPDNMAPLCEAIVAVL

Take `CNC[C@H](O)c1cccc(O)c1` [phenylephrine]: the “reduction of blood basal glutamate levels” value in series [1] (injected intravenously at 0.1 mg/100 gr rat body-weight/30 min) was 40%.
Take `O=C(O)CC(=O)C(=O)O` [OxAc, oxaloacetate]: the “further reduction of the amounts of Glu reaching the recovery probe” value in series [2] (1M Glu perfused, intravenous OxAc at t=110 min for 30 min, 30 μmoles/min/100 g) was “up to 50 % of the peak value”. For the same compound, in series [3] (intravenous OxAc 30 μmoles/min/100 g, 60-90 min after TBI, relative to basal Glu before TBI), the “blood Glu levels after TBI” value was 40%. In series [3] (stress- and OxAc-induced decreases), the “duration of decrease of blood Glu after TBI” value is reported as “at least 90 min”. Moreover, in series [4] (after 30 min-long treatment), the “blood Na content, post-treatment” value is given as 164±3.4 meq/l and the “blood osmolality, post-treatment” value is given as 338±8 mOsm. For the same compound, in series [4] (setting [8]), the “blood Na content, pre-treatment” value is recorded as 139±1 meq/l and the “blood osmolality, pre-treatment” value was 301±5 mOsm.
As for `C[C@]12CCC(=O)C=C1CC[C@@H]1[C@@H]2[C@@H](O)C[C@@]2(C)[C@H]1CC[C@]2(O)C(=O)CO` [cortisol], the “effect on blood Glu levels” value in series [1] was “neither cortisol nor noradrenaline affected blood Glu levels”.
The same measure, in the same setting: the result for `NC[C@H](O)c1ccc(O)c(O)c1` [noradrenaline] reads “neither cortisol nor noradrenaline affected blood Glu levels”.
Consider `O=C(O)CCC(=O)C(=O)O` [2-ketoglutarate], for which, in series [5], the “affinity of E. coli GOT for the substance” value is “about 0.2 mM”.
For `CC(C)NCC(O)COc1cccc2ccccc12` (stereo not drawn) [propranolol], the “effect on Glu dual-probe microdialysis profile” value in series [2] (propranolol pretreatment, data not shown) was “did not affect”. Moreover, the “spontaneous NSS improvement at 24 h” value in series [6] (propranolol 10 mg/kg i.p. 1 hour before TBI) is given as “prevented the spontaneous NSS improvement”. For the same compound, the NSS improvement result in series [6] (propranolol administration delayed by 60 min after TBI) was “caused the same NSS improvement as that found after saline treatment”. In series [6], the “spontaneous partial recovery of rats submitted to TBI” value is “prevented”. Moreover, the “stress-induced changes of blood Glu levels” value in series [3] (propranolol 10 mg/kg i.p. 60 min before TBI) was “prevented for at least 150 min the stress-induced changes of blood Glu and glucose levels”. Further, in series [3] (propranolol, rats submitted to TBI (FIGS. 3A-C)), the “effect on blood glutamate levels” value was “practically no effect”. The “stress-induced changes of blood glucose levels” value in series [7] is “prevented for at least 150 min the stress-induced changes of blood Glu and glucose levels”.
Regarding `N[C@@H](CCC(=O)O)C(=O)O` [Glu, L-glutamic acid], in series [2] (1M Glu perfused, intravenous Glu at t=100 min for 30 min, 30 μmoles/min/100 g), the “amounts of Glu reaching the recovery probe” value is “significantly more Glu reaches the recovery probe”. Further, in series [5], the “affinity of E. coli GOT for the substance” value is “about 8 mM”. In addition, the “recovery from TBI (NSS at 24 h and 48 h)” value in series [6] (intravenous 30 min, 30 μmoles/min/100 g (each), after TBI) is “recovered the least”. Further, the “spontaneous partial recovery of rats submitted to TBI” value in series [6] was “prevented”.
`COCCc1ccc(OCC(O)CNC(C)C)cc1` (stereo not drawn) [metaprolol]: in series [1] (metaprolol 15 mg/kg, naive rats), the “effect on the reduction of blood Glu levels” value is recorded as “strong effect”. Besides, in series [1] (metaprolol 15 mg/kg, naive rats, followed to 120 min), the “reduction of in vivo rat blood glutamate” value stood at 40%.
